In ChEMBL document CHEMBL1141515, “2-(1H-Imidazol-4-yl)ethanamine and 2-(1H-pyrazol-1-yl)ethanamine side chain variants of the IGF-1R inhibitor BMS-536924” (Bioorg Med Chem Lett, 2008):
pIC50: −log10 of the molar value.

Experiments:
Mus musculus = assay: AUC (0 to 4h) in mouse at 20 mg/kg, po; assay type: ADME, organism-based, Plasma; design: time < 4 hr, dose 20 mg/kg, route oral; conditions: in vivo
[1] = target: T1, Insulin-like growth factor 1 receptor (Homo sapiens, UniProt P08069); assay: Inhibition of IGF1R
T1 sequence (P08069 31-736 limits assumed): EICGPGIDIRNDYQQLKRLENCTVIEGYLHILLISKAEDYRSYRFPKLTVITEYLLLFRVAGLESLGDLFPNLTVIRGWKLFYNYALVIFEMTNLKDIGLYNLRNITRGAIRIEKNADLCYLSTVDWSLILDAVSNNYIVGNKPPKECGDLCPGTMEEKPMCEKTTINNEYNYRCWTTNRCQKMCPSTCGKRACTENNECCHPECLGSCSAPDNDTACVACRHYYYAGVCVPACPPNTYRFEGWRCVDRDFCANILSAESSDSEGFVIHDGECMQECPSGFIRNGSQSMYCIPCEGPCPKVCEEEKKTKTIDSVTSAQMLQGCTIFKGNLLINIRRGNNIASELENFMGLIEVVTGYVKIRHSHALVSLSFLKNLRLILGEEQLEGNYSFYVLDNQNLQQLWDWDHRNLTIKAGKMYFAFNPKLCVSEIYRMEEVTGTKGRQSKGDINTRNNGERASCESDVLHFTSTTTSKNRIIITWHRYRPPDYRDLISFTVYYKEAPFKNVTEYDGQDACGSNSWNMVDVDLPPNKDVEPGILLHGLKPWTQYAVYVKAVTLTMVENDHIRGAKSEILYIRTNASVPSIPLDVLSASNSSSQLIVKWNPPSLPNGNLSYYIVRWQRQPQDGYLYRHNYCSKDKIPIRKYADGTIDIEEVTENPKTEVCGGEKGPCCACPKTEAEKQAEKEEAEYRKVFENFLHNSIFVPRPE
T1 sequence (P08069 741-1367 limits assumed): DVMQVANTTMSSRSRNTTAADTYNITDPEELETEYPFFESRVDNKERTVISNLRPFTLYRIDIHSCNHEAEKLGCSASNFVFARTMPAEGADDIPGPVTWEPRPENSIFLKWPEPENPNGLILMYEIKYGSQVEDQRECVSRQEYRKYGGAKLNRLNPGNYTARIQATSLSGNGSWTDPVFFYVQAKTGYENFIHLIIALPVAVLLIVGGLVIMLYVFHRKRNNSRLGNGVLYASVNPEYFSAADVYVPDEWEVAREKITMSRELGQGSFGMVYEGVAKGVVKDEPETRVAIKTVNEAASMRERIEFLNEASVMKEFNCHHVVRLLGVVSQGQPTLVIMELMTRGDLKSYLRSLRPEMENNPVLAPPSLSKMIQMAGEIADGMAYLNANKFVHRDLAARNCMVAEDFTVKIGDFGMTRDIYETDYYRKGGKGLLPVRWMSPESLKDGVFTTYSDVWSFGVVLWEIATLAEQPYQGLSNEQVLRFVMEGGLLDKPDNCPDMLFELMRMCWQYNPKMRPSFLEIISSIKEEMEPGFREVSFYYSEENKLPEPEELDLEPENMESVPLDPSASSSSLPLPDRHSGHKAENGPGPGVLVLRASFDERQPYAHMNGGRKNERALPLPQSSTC

[2] = target: T1, Insulin-like growth factor 1 receptor; assay: Inhibition of IGF1R expressed in SAL cells; assay type: cell-based
[3] = Protein binding in mouse serum; assay type: ADME, cell-free; conditions: read-out: PB
Serum = assay: Protein binding in human serum; assay type: ADME, cell-free

Structure (SMILES)	AUC (Mus musculus)	other results
Cc1cc(N2CCOCC2)cc2[nH]c(-c3c(NCCn4cccn4)cc[nH]c3=O)nc12	1.6 µM·h	
Cc1nn(CCNc2cc[nH]c(=O)c2-c2nc3c(C)cc(N4CCOCC4)cc3[nH]2)cc1Br	132 µM·h	
Cc1cc(N2CCOCC2)cc2[nH]c(-c3c(NCCn4cc(Cl)cn4)cc[nH]c3=O)nc12	90.3 µM·h	
Cc1cc(N2CCOCC2)cc2[nH]c(-c3c(NCCn4nccc4C)cc[nH]c3=O)nc12	5.2 µM·h	pIC50 [1]: 6.57; pIC50 [2]: 6.27
Cc1cc(N2CCOCC2)cc2[nH]c(-c3c(NC[C@@H](O)c4cccc(Cl)c4)cc[nH]c3=O)nc12	50.9 µM·h	fraction unbound [3]: < 0.001; PB (Serum): 99.6%
Cc1cc(N2CCOCC2)cc2[nH]c(-c3c(NCCc4cn(C)cn4)cc[nH]c3=O)nc12	3.8 µM·h	
Cc1cc(N2CCOCC2)cc2[nH]c(-c3c(NCCc4nc(Cl)n(C)c4Cl)cc[nH]c3=O)nc12	32.2 µM·h	
COC(=O)c1cnn(CCNc2cc[nH]c(=O)c2-c2nc3c(C)cc(N4CCOCC4)cc3[nH]2)c1	14.1 µM·h	
Cc1cc(N2CCOCC2)cc2[nH]c(-c3c(NCCc4nc(C)n(C)c4Cl)cc[nH]c3=O)nc12	36 µM·h	
Cc1cc(N2CCOCC2)cc2[nH]c(-c3c(NCCn4cc(Br)c(CO)n4)cc[nH]c3=O)nc12	2 µM·h	
Cc1nn(CCNc2cc[nH]c(=O)c2-c2nc3c(C)cc(N4CCOCC4)cc3[nH]2)cc1Cl	57.8 µM·h	
Cc1cc(N2CCOCC2)cc2[nH]c(-c3c(NCCn4ncc(Br)c4C)cc[nH]c3=O)nc12	33 µM·h	
CCOC(=O)c1cnn(CCNc2cc[nH]c(=O)c2-c2nc3c(C)cc(N4CCOCC4)cc3[nH]2)c1	4.9 µM·h	
Cc1ccn(CCNc2cc[nH]c(=O)c2-c2nc3c(C)cc(N4CCOCC4)cc3[nH]2)n1	1.2 µM·h	pIC50 [1]: 6.54; pIC50 [2]: 6.37
CCn1cnc(CCNc2cc[nH]c(=O)c2-c2nc3c(C)cc(N4CCOCC4)cc3[nH]2)c1Br		pIC50 [1]: 6.76; pIC50 [2]: 6.55
Cc1cnn(CCNc2cc[nH]c(=O)c2-c2nc3c(C)cc(N4CCOCC4)cc3[nH]2)c1	2.7 µM·h	
Cc1cc(N2CCOCC2)cc2[nH]c(-c3c(NCCc4ncn(C)c4Cl)cc[nH]c3=O)nc12	8.2 µM·h	
CCn1cnc(CCNc2cc[nH]c(=O)c2-c2nc3c(C)cc(N4CCOCC4)cc3[nH]2)c1Cl	50.9 µM·h	
